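Grown in 96-well plates, cells were treated for 48 hours with each compound at five concentrations. Insufficient inhibition: endpoint recorded as highest concentration tested. The concentration for 50% growth inhibition is given as GI50. TGI denotes the concentration required for complete inhibition of growth.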
Key:
Assay in all cases: NCI tumour cell line growth inhibition, 48 h; in the data active means GI50 below about 0.43 µM; inactive means the rest
OVCAR-3 ovarian = system: OVCAR-3 ovarian
SK-MEL-28 melanoma = system: SK-MEL-28 melanoma
SK-MEL-2 melanoma = system: SK-MEL-2 melanoma
EKVX NSCLC = system: EKVX NSCLC
UO-31 renal = system: UO-31 renal
KM12 colon = system: KM12 colon
IGROV1 ovarian = system: IGROV1 ovarian
NCI-H23 lung = system: NCI-H23 lung
HS 578T breast = system: HS 578T breast
HL-60(TB) leukemia = system: HL-60(TB) leukemia
SNB-19 CNS = system: SNB-19 CNS
SNB-75 CNS = system: SNB-75 CNS
A549 NSCLC = system: A549 NSCLC
NCI-H522 lung = system: NCI-H522 lung
BT-549 breast = system: BT-549 breast
PC-3 prostate = system: PC-3 prostate
DU-145 prostate = system: DU-145 prostate
A498 renal = system: A498 renal
CAKI-1 renal = system: CAKI-1 renal
HCT-116 colon = system: HCT-116 colon
HCT-15 colon = system: HCT-15 colon
LOX IMVI melanoma = system: LOX IMVI melanoma
UACC-62 melanoma = system: UACC-62 melanoma
K-562 leukemia = system: K-562 leukemia
SF-539 CNS = system: SF-539 CNS
HCC-2998 colon = system: HCC-2998 colon
HOP-62 NSCLC = system: HOP-62 NSCLC
HOP-92 NSCLC = system: HOP-92 NSCLC
U251 CNS = system: U251 CNS
SK-MEL-5 melanoma = system: SK-MEL-5 melanoma
OVCAR-8 ovarian = system: OVCAR-8 ovarian
SF-295 CNS = system: SF-295 CNS
MALME-3M melanoma = system: MALME-3M melanoma
TK-10 renal = system: TK-10 renal
T-47D breast = system: T-47D breast
SN12C renal = system: SN12C renal
SF-268 CNS = system: SF-268 CNS
CCRF-CEM leukemia = system: CCRF-CEM leukemia
RPMI-8226 leukemia = system: RPMI-8226 leukemia
ACHN renal = system: ACHN renal
NCI/ADR-RES ovarian = system: NCI/ADR-RES ovarian
OVCAR-4 ovarian = system: OVCAR-4 ovarian
NCI-H226 lung = system: NCI-H226 lung
HT29 colon = system: HT29 colon
MCF7 breast = system: MCF7 breast
786-0 renal = system: 786-0 renal
UACC-257 melanoma = system: UACC-257 melanoma
MOLT-4 leukemia = system: MOLT-4 leukemia
SK-OV-3 ovarian = system: SK-OV-3 ovarian
M14 melanoma = system: M14 melanoma
NCI-H460 lung = system: NCI-H460 lung
SW-620 colon = system: SW-620 colon
OVCAR-5 ovarian = system: OVCAR-5 ovarian
COLO 205 colon = system: COLO 205 colon
SR leukemia = system: SR leukemia
MDA-MB-231 breast = system: MDA-MB-231 breast
RXF 393 renal = system: RXF 393 renal
MDA-MB-435 = system: MDA-MB-435

CCc1cccc2c3c(sc12)C(c1ccc(F)cc1)C(C#N)=C(/N=C/c1ccc(Cl)cc1)O3 (stereo not drawn)
18000 nM: TGI (SK-MEL-5 melanoma)
2950 nM: TGI (COLO 205 colon)
45900 nM: TGI (NCI-H226 lung)
7840 nM: TGI (BT-549 breast)
78000 nM: TGI (SK-MEL-2 melanoma)
36500 nM: TGI (HT29 colon)
648 nM: TGI (SF-539 CNS)
> 100000 nM: TGI (OVCAR-3 ovarian) | TGI (SK-MEL-28 melanoma) | TGI (EKVX NSCLC) | TGI (UO-31 renal) | TGI (KM12 colon) | TGI (IGROV1 ovarian) | TGI (NCI-H23 lung) | TGI (SNB-19 CNS) | TGI (A549 NSCLC) | TGI (PC-3 prostate) | TGI (DU-145 prostate) | TGI (A498 renal) | TGI (CAKI-1 renal) | TGI (HCT-116 colon) | TGI (HCT-15 colon) | TGI (LOX IMVI melanoma) | TGI (UACC-62 melanoma) | TGI (K-562 leukemia) | TGI (HCC-2998 colon) | TGI (HOP-62 NSCLC) | TGI (HOP-92 NSCLC) | TGI (OVCAR-8 ovarian) | TGI (SF-295 CNS) | TGI (MALME-3M melanoma) | TGI (TK-10 renal) | TGI (T-47D breast) | TGI (SN12C renal) | TGI (SF-268 CNS) | TGI (RPMI-8226 leukemia) | TGI (ACHN renal) | TGI (OVCAR-4 ovarian) | TGI (MCF7 breast) | TGI (786-0 renal) | TGI (UACC-257 melanoma) | TGI (MOLT-4 leukemia) | TGI (SK-OV-3 ovarian) | TGI (M14 melanoma) | TGI (NCI-H460 lung) | TGI (SW-620 colon) | TGI (OVCAR-5 ovarian) | TGI (MDA-MB-231 breast)
19800 nM: TGI (SR leukemia)
683 nM: TGI (NCI/ADR-RES ovarian)
active: GI50 (SK-MEL-2 melanoma) 325 nM | GI50 (HS 578T breast) 255 nM | GI50 (HL-60(TB) leukemia) 222 nM | GI50 (SNB-75 CNS) 376 nM | GI50 (NCI-H522 lung) 66 nM | GI50 (CAKI-1 renal) 149 nM | GI50 (HCT-116 colon) 383 nM | GI50 (HCT-15 colon) 355 nM | GI50 (UACC-62 melanoma) 352 nM | GI50 (K-562 leukemia) 128 nM | GI50 (SF-539 CNS) 208 nM | GI50 (HOP-62 NSCLC) 312 nM | GI50 (U251 CNS) 369 nM | GI50 (SK-MEL-5 melanoma) 319 nM | GI50 (SF-295 CNS) 278 nM | GI50 (MALME-3M melanoma) 384 nM | GI50 (CCRF-CEM leukemia) 324 nM | GI50 (RPMI-8226 leukemia) 387 nM | GI50 (NCI/ADR-RES ovarian) 192 nM | GI50 (NCI-H226 lung) 379 nM | GI50 (HT29 colon) 323 nM | GI50 (MCF7 breast) 392 nM | GI50 (SK-OV-3 ovarian) 412 nM | GI50 (M14 melanoma) 335 nM | GI50 (OVCAR-5 ovarian) 421 nM | GI50 (COLO 205 colon) 373 nM | GI50 (SR leukemia) 402 nM | GI50 (MDA-MB-231 breast) 364 nM
44200 nM: TGI (CCRF-CEM leukemia)
381 nM: TGI (NCI-H522 lung)
649 nM: TGI (HL-60(TB) leukemia)
80200 nM: TGI (HS 578T breast)
79800 nM: TGI (SNB-75 CNS)
34200 nM: TGI (U251 CNS)
inactive: GI50 (OVCAR-3 ovarian) 709 nM | GI50 (SK-MEL-28 melanoma) 492 nM | GI50 (EKVX NSCLC) 488 nM | GI50 (UO-31 renal) 553 nM | GI50 (KM12 colon) 701 nM | GI50 (IGROV1 ovarian) 498 nM | GI50 (NCI-H23 lung) 578 nM | GI50 (SNB-19 CNS) 988 nM | GI50 (A549 NSCLC) 506 nM | GI50 (BT-549 breast) 2050 nM | GI50 (PC-3 prostate) 501 nM | GI50 (DU-145 prostate) 579 nM | GI50 (A498 renal) > 100000 nM | GI50 (LOX IMVI melanoma) 576 nM | GI50 (HCC-2998 colon) 1140 nM | GI50 (HOP-92 NSCLC) 22400 nM | GI50 (OVCAR-8 ovarian) 500 nM | GI50 (TK-10 renal) 6800 nM | GI50 (T-47D breast) 450 nM | GI50 (SN12C renal) 430 nM | GI50 (SF-268 CNS) 6260 nM | GI50 (ACHN renal) 824 nM | GI50 (OVCAR-4 ovarian) 97600 nM | GI50 (786-0 renal) 661 nM | GI50 (UACC-257 melanoma) 43400 nM | GI50 (MOLT-4 leukemia) 519 nM | GI50 (NCI-H460 lung) 427 nM | GI50 (SW-620 colon) 471 nM

c1ccc(-c2n(Cc3ccc4ccccc4c3)c3c4ccccc4c4ccccc4c3[n+]2Cc2ccc3ccccc3c2)cc1
3660 nM: TGI (NCI/ADR-RES ovarian)
1520 nM: TGI (DU-145 prostate) | TGI (CAKI-1 renal)
2000 nM: TGI (TK-10 renal)
1030 nM: TGI (RXF 393 renal)
1290 nM: TGI (BT-549 breast)
1930 nM: TGI (ACHN renal)
380 nM: TGI (HL-60(TB) leukemia)
1040 nM: TGI (RPMI-8226 leukemia)
1590 nM: TGI (HOP-62 NSCLC)
1580 nM: TGI (HCC-2998 colon)
1840 nM: TGI (T-47D breast) | TGI (SF-268 CNS)
1060 nM: TGI (MDA-MB-231 breast)
1370 nM: TGI (SW-620 colon)
1380 nM: TGI (HT29 colon)
1630 nM: TGI (NCI-H522 lung)
853 nM: TGI (SK-MEL-2 melanoma)
437 nM: TGI (SK-MEL-5 melanoma)
active: GI50 (OVCAR-3 ovarian) 351 nM | GI50 (SK-MEL-2 melanoma) 294 nM | GI50 (KM12 colon) 395 nM | GI50 (IGROV1 ovarian) 192 nM | GI50 (NCI-H23 lung) 228 nM | GI50 (HL-60(TB) leukemia) 157 nM | GI50 (SNB-19 CNS) 364 nM | GI50 (SNB-75 CNS) 303 nM | GI50 (NCI-H522 lung) 340 nM | GI50 (BT-549 breast) 316 nM | GI50 (PC-3 prostate) 313 nM | GI50 (DU-145 prostate) 406 nM | GI50 (RXF 393 renal) 280 nM | GI50 (A498 renal) 337 nM | GI50 (CAKI-1 renal) 389 nM | GI50 (HCT-116 colon) 183 nM | GI50 (LOX IMVI melanoma) 177 nM | GI50 (UACC-62 melanoma) 343 nM | GI50 (K-562 leukemia) 271 nM | GI50 (SF-539 CNS) 375 nM | GI50 (HCC-2998 colon) 407 nM | GI50 (HOP-62 NSCLC) 358 nM | GI50 (HOP-92 NSCLC) 211 nM | GI50 (U251 CNS) 312 nM | GI50 (SK-MEL-5 melanoma) 203 nM | GI50 (SF-295 CNS) 282 nM | GI50 (T-47D breast) 367 nM | GI50 (MDA-MB-435) 340 nM | GI50 (SN12C renal) 323 nM | GI50 (CCRF-CEM leukemia) 357 nM | GI50 (RPMI-8226 leukemia) 261 nM | GI50 (OVCAR-4 ovarian) 298 nM | GI50 (NCI-H226 lung) 408 nM | GI50 (HT29 colon) 179 nM | GI50 (MCF7 breast) 304 nM | GI50 (786-0 renal) 337 nM | GI50 (UACC-257 melanoma) 328 nM | GI50 (MOLT-4 leukemia) 377 nM | GI50 (SK-OV-3 ovarian) 317 nM | GI50 (SW-620 colon) 329 nM | GI50 (OVCAR-5 ovarian) 423 nM | GI50 (COLO 205 colon) 267 nM | GI50 (SR leukemia) 245 nM | GI50 (MDA-MB-231 breast) 313 nM
1870 nM: TGI (SK-MEL-28 melanoma)
2030 nM: TGI (EKVX NSCLC)
inactive: GI50 (SK-MEL-28 melanoma) 569 nM | GI50 (EKVX NSCLC) 552 nM | GI50 (UO-31 renal) 1550 nM | GI50 (HS 578T breast) 434 nM | GI50 (HCT-15 colon) 966 nM | GI50 (TK-10 renal) 468 nM | GI50 (SF-268 CNS) 441 nM | GI50 (ACHN renal) 708 nM | GI50 (NCI/ADR-RES ovarian) 1630 nM
1560 nM: TGI (U251 CNS)
1140 nM: TGI (HCT-116 colon)
1220 nM: TGI (PC-3 prostate)
1750 nM: TGI (CCRF-CEM leukemia)
1240 nM: TGI (UACC-257 melanoma)
1510 nM: TGI (KM12 colon)
3220 nM: TGI (UO-31 renal)
1250 nM: TGI (MDA-MB-435)
1850 nM: TGI (NCI-H226 lung)
2050 nM: TGI (HS 578T breast)
1700 nM: TGI (OVCAR-5 ovarian)
1390 nM: TGI (MOLT-4 leukemia)
1360 nM: TGI (MCF7 breast)
2630 nM: TGI (HCT-15 colon)
1270 nM: TGI (OVCAR-4 ovarian)
1450 nM: TGI (SNB-19 CNS)
740 nM: TGI (HOP-92 NSCLC)
1120 nM: TGI (SK-OV-3 ovarian)
355 nM: TGI (LOX IMVI melanoma)
1340 nM: TGI (IGROV1 ovarian) | TGI (786-0 renal)
1110 nM: TGI (SF-295 CNS)
1400 nM: TGI (SNB-75 CNS) | TGI (UACC-62 melanoma) | TGI (SF-539 CNS)
825 nM: TGI (SR leukemia)
795 nM: TGI (COLO 205 colon)
1210 nM: TGI (SN12C renal)
1180 nM: TGI (K-562 leukemia)
1230 nM: TGI (OVCAR-3 ovarian) | TGI (A498 renal)
790 nM: TGI (NCI-H23 lung)
